Data taken from ChEMBL document CHEMBL1142472, “New ferrocenic pyrrolo[1,2-a]quinoxaline derivatives: synthesis, and in vitro antimalarial activity” (Bioorg Med Chem, 2008).
Calls of active or inactive are those of the source. The rule behind the calls is not given here.

Biological target: T1, Histidine-rich protein PFHRP-II (Plasmodium falciparum) (UniProt P05227)
T1 sequence (whole entry): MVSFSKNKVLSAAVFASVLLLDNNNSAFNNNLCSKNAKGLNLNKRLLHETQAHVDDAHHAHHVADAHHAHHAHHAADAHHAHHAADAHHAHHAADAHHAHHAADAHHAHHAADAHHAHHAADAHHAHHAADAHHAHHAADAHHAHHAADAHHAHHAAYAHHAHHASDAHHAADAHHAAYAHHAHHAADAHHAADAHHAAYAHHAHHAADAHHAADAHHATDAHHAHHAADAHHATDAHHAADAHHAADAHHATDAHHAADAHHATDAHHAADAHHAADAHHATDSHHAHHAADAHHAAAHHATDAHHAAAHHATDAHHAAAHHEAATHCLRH
Test: Inhibition of beta-hematin formation assessed as drug: hematin molar ratio causing inhibition of hem polymerization after 24 hrs by HPIA method
Format: functional

Row | SMILES | Ratio IC50 | Activity
1 | C[C@@H]1CC[C@H]2[C@@H](C)C(=O)O[C@@H]3O[C@@]4(C)CC[C@@H]1[C@]32OO4 | 1.5 | 
2 | COc1cc(NS(=O)(=O)c2ccc(N)cc2)nc(OC)n1 |  | inactive
